Test results reported in PMC11111408, “Concurrent inhibition of oncogenic and wild-type RAS-GTP for cancer therapy” (Nature, 2024).
Values joined by “and” are separate entries in the source; they are usually repeats but may differ in a detail not shown here. Equal entries are not always repeated.

Tests used:
Format in all cases: cell-based
KRAS–PI3Kα [1] = target: T1, KRAS–PI3Kα (Homo sapiens, UniProt P01116, G12C); test: Cellular nano-BRET, full length PI3Kα binding to KRAS G12C, G12D, G12V; conditions: KRAS G12C, in the presence of CYPA, single replicates;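 note: U2OS cells expressing KRAS4B mutants carrying N-terminal nanoluciferase or HaloTag fusions, with nano-BRET signal measured after inhibitor exposure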
T1 construct: expressed in transfected cells; host or cells: U2OS

KRAS–PI3Kα [2] = target: T2, KRAS–PI3Kα (Homo sapiens, UniProt P01116, G12D); test: as above; conditions: KRAS G12D, in the presence of CYPA, single replicates
T2 construct: expressed in transfected cells; host or cells: U2OS

KRAS–PI3Kα [3] = target: T3, KRAS–PI3Kα (Homo sapiens, UniProt P01116, G12V); test: as above; conditions: KRAS G12V, in the presence of CYPA, single replicates
T3 construct: expressed in transfected cells; host or cells: U2OS

[4] = tested on: Capan-1, SW620, AsPC-1, HPAC, NCI-H358, PSN1, HUPT3, HCT 116, Hs 766T, SK-MEL-30, KU1919, NCI-H1975, A375; test: Proliferation (CTG) in human cancer cell lines
Procedure: Data points show biological duplicates normalized to vehicle control. […] Data points show biological duplicates normalized to vehicle control from 1 of 2–26 independent experiments. Source Data
Alternatively, cells were seeded in round-bottom ultra-low attachment 96-well plates, centrifuged at 1,000 rpm for 10 min to pellet the cells, and incubated overnight or up to 72 h to allow for 3D spheroid formation. […] Cell viability was determined by CellTiter-Glo 2.0 reagent (2D CTG) (Promega, G9243) or 3D CellTiter-Glo reagent (3D CTG) (Promega, G9683) according to the manufacturer’s protocols. Luminescence was detected using a SpectraMax M5 Plate Reader (Molecular Devices) of Perkin Elmer Enspire. Luminescence signal was normalized to vehicle-treated wells (normalized signal (%) = (luminescence (treated)/mean luminescence (vehicle)) × 100%). […] Data were plotted as log [inhibitor (M)], and a four-parameter sigmoidal concentration response model was fitted to the data to calculate EC50. […] Pa16C MEK1 mutant cells were evaluated by live-cell counting using Calcein AM and a SpectraMax i3X multi-mode detection platform (Molecular Devices). Growth percentages were calculated by normalizing the treated cell counts to their respective untreated cell counts.

Structure (SMILES): CCn1c(-c2cc(N3CCN(C4CC4)CC3)cnc2[C@H](C)OC)c2c3cc(ccc31)-c1csc(n1)C[C@H](NC(=O)[C@H]1[C@@H]3COC[C@@H]31)C(=O)N1CCC[C@H](N1)C(=O)OCC(C)(C)C2 [RMC-7977]
- Cellular nano-BRET of PI3K⍺ (full-length) binding to KRAS (KRAS–PI3Kα [1]; RMC-7977 4.115 nM): 18.9 and 18.4569 and 18.8341 and 18.1839 and 17.8374 and 17.916
- Cellular nano-BRET of PI3K⍺ (full-length) binding to KRAS (KRAS–PI3Kα [1]; RMC-7977 12.346 nM): 15.8416 and 16.2344 and 15.8041 and 16.4517 and 15.615 and 15.4215
- Cellular nano-BRET of PI3K⍺ (full-length) binding to KRAS (KRAS–PI3Kα [1]; RMC-7977 37.037 nM): 13.5244 and 14.2699 and 13.7436 and 13.7375 and 14.0918 and 13.7581
- Cellular nano-BRET of PI3K⍺ (full-length) binding to KRAS (KRAS–PI3Kα [1]; RMC-7977 111.111 nM): 13.3801 and 13.6296 and 13.7851 and 13.3968 and 13.4702 and 13.5585
- Cellular nano-BRET of PI3K⍺ (full-length) binding to KRAS (KRAS–PI3Kα [1]; RMC-7977 333.333 nM): 13.479 and 13.457 and 13.6054 and 13.4472 and 13.3596 and 13.441
- Cellular nano-BRET of PI3K⍺ (full-length) binding to KRAS (KRAS–PI3Kα [1]; RMC-7977 1000.000 nM): 13.0371 and 13.4964 and 13.2247 and 13.6424 and 13.499 and 13.5185
- Cellular nano-BRET of PI3K⍺ (full-length) binding to KRAS (KRAS–PI3Kα [2]; RMC-7977 12.346 nM): 15.8391 and 14.8964 and 15.0849 and 14.7399 and 14.2306 and 14.9536
- Cellular nano-BRET of PI3K⍺ (full-length) binding to KRAS (KRAS–PI3Kα [2]; RMC-7977 37.037 nM): 13.3166 and 13.8897 and 13.2531 and 13.6566 and 13.0465 and 13.0111
- Cellular nano-BRET of PI3K⍺ (full-length) binding to KRAS (KRAS–PI3Kα [2]; RMC-7977 111.111 nM): 12.9631 and 12.8542 (2×) and 12.751 and 12.7145 and 12.5362
- Cellular nano-BRET of PI3K⍺ (full-length) binding to KRAS (KRAS–PI3Kα [2]; RMC-7977 333.333 nM): 12.4418 and 12.5115 and 12.0796 and 12.2384 and 12.3217 and 12.5478
- Cellular nano-BRET of PI3K⍺ (full-length) binding to KRAS (KRAS–PI3Kα [2]; RMC-7977 1000.000 nM): 12.9103 and 12.8341 and 12.4299 and 12.848 and 12.6569 and 12.4165
- Cellular nano-BRET of PI3K⍺ (full-length) binding to KRAS (KRAS–PI3Kα [3]; RMC-7977 4.115 nM): 19.5671 and 18.6162 and 18.8909 and 19.2958
- Cellular nano-BRET of PI3K⍺ (full-length) binding to KRAS (KRAS–PI3Kα [3]; RMC-7977 12.346 nM): 17.0686 and 16.4926 and 17.3848 and 16.3061 and 17.5986 and 16.6607
- Cellular nano-BRET of PI3K⍺ (full-length) binding to KRAS (KRAS–PI3Kα [3]; RMC-7977 37.037 nM): 14.0491 and 14.079 and 13.7071 and 13.4685 and 14.6716 and 13.9571
- Cellular nano-BRET of PI3K⍺ (full-length) binding to KRAS (KRAS–PI3Kα [3]; RMC-7977 111.111 nM): 13.3096 and 12.8133 and 13.2135 and 13.4943 and 13.3044 and 13.1946
- Cellular nano-BRET of PI3K⍺ (full-length) binding to KRAS (KRAS–PI3Kα [3]; RMC-7977 333.333 nM): 13.0302 and 13.2252 and 12.7334 and 12.2876 and 12.5409 and 12.8603
- Cellular nano-BRET of PI3K⍺ (full-length) binding to KRAS (KRAS–PI3Kα [3]; RMC-7977 1000.000 nM): 12.5669 and 12.7724 and 12.7825 and 12.8803 and 12.1527 and 13.0533
- Cell proliferation (CellTiter-Glo) ([4]; ASPC1, RMC-7977 1.52 nM): 68.8907 and 77.7752
- Cell proliferation (CellTiter-Glo) ([4]; ASPC1, RMC-7977 4.57 nM): 54.6049 and 56.084
- Cell proliferation (CellTiter-Glo) ([4]; ASPC1, RMC-7977 13.72 nM): 31.4521 and 36.2763
- Cell proliferation (CellTiter-Glo) ([4]; ASPC1, RMC-7977 41.15 nM): 19.3277 and 20.3014
- Cell proliferation (CellTiter-Glo) ([4]; ASPC1, RMC-7977 123.46 nM): 12.8203 and 13.4559
- Cell proliferation (CellTiter-Glo) ([4]; ASPC1, RMC-7977 370.39 nM): 9.7785 and 11.4734
- Cell proliferation (CellTiter-Glo) ([4]; ASPC1, RMC-7977 1111.14 nM): 8.521 and 9.0438
- Cell proliferation (CellTiter-Glo) ([4]; ASPC1, RMC-7977 3333.41 nM): 6.811 and 10.0312
- Cell proliferation (CellTiter-Glo) ([4]; ASPC1, RMC-7977 10000.00 nM): 5.308 and 5.788
- Cell proliferation (CellTiter-Glo) ([4]; CAPAN1, RMC-7977 1.52 nM): 59.9636 and 63.7997
- Cell proliferation (CellTiter-Glo) ([4]; CAPAN1, RMC-7977 4.57 nM): 35.7372 and 42.3141
- Cell proliferation (CellTiter-Glo) ([4]; CAPAN1, RMC-7977 13.72 nM): 18.382 and 18.5053
- Cell proliferation (CellTiter-Glo) ([4]; CAPAN1, RMC-7977 41.15 nM): 11.8827 and 13.681
- Cell proliferation (CellTiter-Glo) ([4]; CAPAN1, RMC-7977 123.46 nM): 8.811 and 11.6796
- Cell proliferation (CellTiter-Glo) ([4]; CAPAN1, RMC-7977 370.39 nM): 5.4975 and 10.0571
